Experimental data taken from paper PMC9792986, “Synthesis and characterization of semisynthetic analogs of the antifungal occidiofungin” (Frontiers in Microbiology, 2022).
Several values for one entry are separate records, joined by “and”; a condition that tells them apart may be missing. Identical values can stand only once. Starred links: 1 amine or outer side, 2 acyl side, 3 side chain; linkers in the order of their positions; H or OH if unused. Non-standard residues stand in square brackets, D forms with d. Residues, ends and D or L forms follow the SMILES beside them. X3 = O=C([C@@H](N[*:1])C(O)c1ccc(O)cc1)[*:2]; X2 = CCCCCCCCCCCCNCCC(CC(=O)[*:2])N[*:1]; X1 = NC(=O)C(O)[C@H](N[*:1])C(=O)[*:2]; Dab = NCC[C@H](N)C(=O)O

Experiments:
[1] = test system: Saccharomyces cerevisiae DGY6 haploid BY4741; assay: Minimum inhibitory concentration assay; type: cell-based; details: for fold of native compound's concentration at which completely inactive: against S. cerevisiae; for MIC: S. cerevisiae DGY6 haploid BY4741, modified CLSI M27-A3, 24 h incubation, duplicate
Method: (§1) MIC assays were performed in duplicate following a modified version of the CLSI M27-A3 protocol as previously described ([Ravichandran et al., 2019]).

[2] = test system: Saccharomyces cerevisiae cells; assay: Fluorescent microscopy and competitive binding (uptake) assay with alkyne-occidiofungin; type: cell-based; details: 5 min pretreatment at 1X MIC of native occidiofungin, then 1X MIC alkyne-OCF 30 min; fluorescence microscopy
Method: After 30 min, the cells were fixed then permeabilized. Click reaction was performed with azide-derivatized Alexa Fluor 488 as per the kit-supplied protocol (Click-iT EdU imaging kit; Thermo Fisher Scientific). The cells were suspended in […]® Antifade Mounting Medium and visualized with a Leica DM 6B microscope. […] The cells were then fixed, permeabilized and Click reaction was performed as previously described ([Ravichandran et al., 2019]).

[3] = HPLC percentage of water at elution (polarity); type: physicochemical; details: chromatographic, analytical C18 (Agilent ZORBAX ODS, 5 μm, 4.6 × 250 mm); 30-min gradient from 90 to 20% water/ACN, 0.1% TFA; UV 220 nm; used as measure of polarity
Method: A two-step procedure of reductive amination was used to introduce a primary or secondary amine onto the aldehyde analog. The first step of reaction involves the formation of an intermediate carbinol amine, which is then dehydrated and protonated to form an iminium ion. Subsequent reduction of this iminium ion with sodium borohydride produces an alkylated amine product. The aldehyde analog of occidiofungin was dissolved in DMSO at a concentration of 10 mg/ml. Three amines (undecylamine, dodecylamine, and DL-dihydrosphingosine) were used for reductive amination. Aldehyde analog (10 μl of DMSO stock solution; 100 μg) was mixed with 10-fold excess of an amino lipid (molar ratio) in 400 μl pure methanol. The sample was then incubated at room temperature for at least 16 h. Solid sodium borohydride (6 mg) was weighted on an analytical balance (Adventurer™ Pro AV114C, Ohaus Corporation, USA) and was directly transferred into the reaction mixture, mixed well, and was incubated at room temperature for 5 min. The reaction mixture was diluted to 1 ml with 50% ACN 0.1% TFA and was separated by HPLC using a 30-min gradient from 90 to 20% water/ACN on the analytical C18 column. HPLC solvents contained 0.1% TFA. Products that eluted between 50% and 30% water were collected and analyzed by electrospray ionization mass spectrometry (ESI-MS) on a ThermoFisher DecaXP ion trap mass spectrometer. The yield of each HPLC sample was quantified by comparing the peak area of each analog to the peak area of a 100 μg standard of occidiofungin. Electrospray ionization mass spectrometry (ESI-MS) experiments were performed using a Thermo Scientific Q Exactive Focus. Sample was loop injected (10 μl) and acetonitrile with 0.1% formic acid was used as a mobile phase at a flow rate of 600 μl/min. The Q Exactive Focus HESI source was operated in full MS in positive mode. The mass resolution was tuned to 70,000 FWHM at m/z 200. The spray voltage was set to 3.5 kV, and the sheath gas and auxiliary gas flow rates were set to 40 and 10 arbitrary units, respectively. The transfer capillary temperature was held at 300°C and the S-Lens RF level was set at 50 v. Exactive Series 2.11 /Xcalibur 4.2.47 software was used for data acquisition and processing. The alkyne occidiofungin (alkyne-OCF) used for fluorescent microscopy was synthesized as previously described ([Ravichandran et al., 2019]).

[4] = test system: S. cerevisiae, Candida albicans, and Candida glabrata; assay: MIC comparison with native occidiofungin over the yeasts tested; type: cell-based; details: against the Candida species tested and S. cerevisiae strain tested
Method: as §1

[5] = test system: Candida albicans ATCC 3147; assay: Minimum inhibitory concentration assay; type: cell-based; details: C. albicans ATCC 3147; modified CLSI M27-A3; 24 h incubation; duplicate
Method: as §1

[6] = test system: Candida glabrata ATCC 2001; assay: Minimum inhibitory concentration assay; type: cell-based; details: C. glabrata ATCC 2001; modified CLSI M27-A3; 24 h incubation; duplicate
Method: as §1

[7] = test system: G-actin; assay: Pyrene labeled actin polymerization assay; type: biochemical; details: 5 μM compound; duplicate
Method: (§2) Actin polymerization and depolymerization assays were performed using the Actin polymerization biochem kit (# BK003; Cytoskeleton, Inc. Denver, CO) following the manufacturer’s instructions with some modifications. Briefly, for the polymerization assay, G-actin stock solution was made at 0.2 mg/ml instead of 0.4 mg/ml. For the depolymerization assay, F-actin stock solution was diluted nine-fold instead of five-fold. Test compounds including phalloidin, DL-dihydrosphingosine analog, and native occidiofungin were tested at a final concentration of 5 μM. The experiments were done in duplicate.

[8] = test system: F-actin; assay: Pyrene labeled actin depolymerization assay; type: biochemical; details: 5 μM compound; duplicate
Method: as §2

[9] = target: T1, F-actin (rabbit skeletal muscle filamentous actin) (Oryctolagus cuniculus, UniProt P68135); set-up: method as in Ravichandran et al., 2019; details: co-sedimentation, published previously, ref Ravichandran et al., 2019, cited from earlier work; for Kd: read-out: Kd value for binding to F-actin
T1 construct: Purified rabbit skeletal muscle filamentous actin (AKF99); purchased Cytoskeleton Inc. (Denver, CO) AKF99; host or cells: rabbit skeletal muscle (tissue-purified)

Molecule	fold of native compound's concentration at which completely inactive [1] [fold]	effect of pretreatment on internalization of alkyne-OCF [2]	percentage of water for the HPLC retention time [3] [%]	fold of native occidiofungin's inhibitory concentration at which inactive [4] [fold]	MIC [5] [µg/mL]	MIC [6] [µg/mL]	MIC [1] [µg/mL]	effect on actin polymerization (in words) [7]	effect on actin depolymerization (in words) [8]	saturation of binding ratio (ligand:actin monomer) [9]	Kd [9]
CCCCCCCCCCCCNCCC1CC(=O)N[C@@H](CO)C(=O)N[C@@H](C(O)c2ccc(O)cc2)C(=O)N[C@@H](CCN)C(=O)NCC(=O)N[C@@H](CC(N)=O)C(=O)N[C@@H](CO)C(=O)N[C@@H](C(O)C(N)=O)C(=O)N1 (stereo partly drawn) [Dodecylamine] (cyclo([X1][X2]S[X3][Dab]GNS))	64	did not interfere with the internalization of the alkyne-OCF	47	64							
DL-dihydrosphingosine			33		16	8	2	did not interfere with polymerization or depolymerization	did not interfere with polymerization or depolymerization		
Undecylamine	64		50	64	>32	>8	>4				
occidiofungin [Native occidiofungin, reference compound]		prevented internalization of alkyne-OCF	48		0.5	0.5	0.0625	did not interfere with polymerization or depolymerization	did not interfere with polymerization or depolymerization	more than 20 molecules of occidiofungin to one actin monomer	1050 nM
phalloidin									completely blocked the depolymerization of F-actin		~8 nM and 8 nM
